Data from paper PMC6968641, “N-monoarylacetothioureas as potent urease inhibitors: synthesis, SAR, and biological evaluation” (Journal of Enzyme Inhibition and Medicinal Chemistry, 2019).
Values after ≈ are worked out from the molar mass of the structure shown. Read-outs that look alike come from different tables or passages of the source.

How the values were obtained:
[1] = molecular target: T1, urease in intact H. pylori cell (Helicobacter pylori, UniProt P69996); assay: Urease inhibition in intact H. pylori cell (indophenol method); format: cell-based
T1 construct: H. pylori urease was replaced by 25 µL of cell suspension (4.0 × 10^7 CFU/mL); endogenous in cells; host or cells: intact H. pylori ATCC 43504 cells
T1 sequence (P69996 whole entry): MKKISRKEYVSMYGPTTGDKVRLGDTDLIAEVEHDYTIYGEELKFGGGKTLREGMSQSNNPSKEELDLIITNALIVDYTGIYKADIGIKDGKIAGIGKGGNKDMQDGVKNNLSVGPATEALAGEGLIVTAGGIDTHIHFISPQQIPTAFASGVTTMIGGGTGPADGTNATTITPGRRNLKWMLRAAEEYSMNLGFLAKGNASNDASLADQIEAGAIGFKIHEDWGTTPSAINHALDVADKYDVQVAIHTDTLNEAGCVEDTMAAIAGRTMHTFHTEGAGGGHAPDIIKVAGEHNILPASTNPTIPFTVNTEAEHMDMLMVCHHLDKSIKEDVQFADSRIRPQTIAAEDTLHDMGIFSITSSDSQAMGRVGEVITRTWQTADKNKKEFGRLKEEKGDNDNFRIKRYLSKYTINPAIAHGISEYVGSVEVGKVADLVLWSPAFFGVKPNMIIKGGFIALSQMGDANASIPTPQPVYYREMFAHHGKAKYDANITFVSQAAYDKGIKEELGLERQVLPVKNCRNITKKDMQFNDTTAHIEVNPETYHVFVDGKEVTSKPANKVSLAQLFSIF
T1 sequence (P14916 whole entry, further chain): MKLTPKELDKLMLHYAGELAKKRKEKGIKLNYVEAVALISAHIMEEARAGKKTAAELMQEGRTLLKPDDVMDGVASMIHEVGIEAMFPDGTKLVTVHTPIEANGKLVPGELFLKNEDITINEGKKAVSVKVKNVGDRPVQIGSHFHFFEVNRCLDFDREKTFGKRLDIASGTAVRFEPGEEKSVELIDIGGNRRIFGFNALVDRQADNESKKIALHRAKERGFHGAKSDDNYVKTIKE

H. pylori urease = molecular target: T2, H. pylori urease (Helicobacter pylori, UniProt P69996); assay: Urease inhibition, extracted H. pylori urease (indophenol method); format: biochemical; details: for IC50: extracted H. pylori urease
T2 construct: endogenous in cells; host or cells: H. pylori ATCC 43504; sonicated, supernatant desalted on Sephadex G-25 (crude extract)
T2 sequence (P14916 whole entry): as the sequence (P14916 whole entry, further chain) above
T2 sequence (P69996 whole entry): as the sequence (P69996 whole entry) above
Description: For urease inhibition assays, 50 mL broth cultures (2.0 × 10^8 CFU/mL) were centrifuged (5000×g, 4 °C) to collect the bacteria, and after washing twice with phosphate-buffered saline (pH 7.4), the H. pylori precipitation was stored at –80 °C for 8 h, and then was returned to room temperature, and after addition of 3 mL of distilled water and protease inhibitors, sonication was performed for 60 s. Following centrifugation (15,000×g, 4 °C), the supernatant was desalted through Sephadex G-25 column (PD-10 columns, Amersham Pharmacia Biotech, Uppsala, Sweden). The resultant crude urease solution was added to an equal volume of glycerol and stored at 4 °C until use in the experiment.
Urease activity was determined in the 96-well assay plate by measuring ammonia production using the indophenol method as described by Weatherburn[20]. Briefly, to each well, 50 µL of urea (10 mM) in phosphate buffer solution was added in a mixture of 25 µL (10 U) of H. pylori urease and 25 µL of the test compound, which was incubated at 37 °C for 0.5 h. Fifty µL of phenol reagent (containing 127 mM phenol and 0.168 mM sodium nitroprusside) and 50 µL of alkali reagent (containing 125 mM NaOH and 0.168 mM NaOCl) were added in turn. The resulted mixture was incubated at 37 °C for another 0.5 h for colouration developing. The increasing absorbance was measured at 630 nm after 50 min using a microplate reader (Molecular Devices, San Jose, CA). Percentage inhibitions were calculated from the following formula (Equation (1)). Experiments were performed in triplicate and AHA was used as reference drug, and the IC50 value was determined as the concentration of compound that give 50% inhibition of maximal activity. As for the urease assay of intact cells, 25 µL (10 U) of H. pylori urease was replaced by 25 µL of cell suspension (4.0 × 10^7 CFU/mL).

H. pylori = assay: Minimum inhibitory concentration, broth microdilution (CLSI); format: cell-based, Helicobacter pylori (ATCC 43504)
Description: H. pylori (ATCC 43504; […] The minimum inhibitory concentration (MIC) values were determined using the broth microdilution protocol according to the methods of the Clinical and Laboratory Standards Institute (CLSI)[21].

[2] = Cytotoxicity MTT assay, P69; format: cell-based; details: human, P69 cells (normal prostate cell line), 25 μg/mL
Description: (§1) The stock solutions of the selected compounds (250 µg/mL, in PBS) were prepared in medium. L-02 cells and P69 cells were grown in medium (90% RPMI-1640 medium, 10% foetal bovine serum, 1% penicillin/streptomycin) and maintained at 37 °C in a humidified atmosphere containing 5% CO2, respectively. Cells were seeded in 96-well cell culture plates. On the day when seeding, the cells were exposed to 250 µg/mL of compounds and further cultured for 72 h at 37 °C. Cell proliferation was then determined using the thiazolyl blue tetrazolium bromide (MTT) assay.

Jack bean urease [3] = molecular target: T3, Jack bean urease (Canavalia ensiformis, UniProt P07374); assay: Enzyme kinetic study (indophenol method); format: biochemical; details: for Type of inhibition: Jack bean urease; for Ki': dissociation constant of urease-urea-inhibitor complex
T3 construct: purchased
T3 sequence (P07374 whole entry, looked up): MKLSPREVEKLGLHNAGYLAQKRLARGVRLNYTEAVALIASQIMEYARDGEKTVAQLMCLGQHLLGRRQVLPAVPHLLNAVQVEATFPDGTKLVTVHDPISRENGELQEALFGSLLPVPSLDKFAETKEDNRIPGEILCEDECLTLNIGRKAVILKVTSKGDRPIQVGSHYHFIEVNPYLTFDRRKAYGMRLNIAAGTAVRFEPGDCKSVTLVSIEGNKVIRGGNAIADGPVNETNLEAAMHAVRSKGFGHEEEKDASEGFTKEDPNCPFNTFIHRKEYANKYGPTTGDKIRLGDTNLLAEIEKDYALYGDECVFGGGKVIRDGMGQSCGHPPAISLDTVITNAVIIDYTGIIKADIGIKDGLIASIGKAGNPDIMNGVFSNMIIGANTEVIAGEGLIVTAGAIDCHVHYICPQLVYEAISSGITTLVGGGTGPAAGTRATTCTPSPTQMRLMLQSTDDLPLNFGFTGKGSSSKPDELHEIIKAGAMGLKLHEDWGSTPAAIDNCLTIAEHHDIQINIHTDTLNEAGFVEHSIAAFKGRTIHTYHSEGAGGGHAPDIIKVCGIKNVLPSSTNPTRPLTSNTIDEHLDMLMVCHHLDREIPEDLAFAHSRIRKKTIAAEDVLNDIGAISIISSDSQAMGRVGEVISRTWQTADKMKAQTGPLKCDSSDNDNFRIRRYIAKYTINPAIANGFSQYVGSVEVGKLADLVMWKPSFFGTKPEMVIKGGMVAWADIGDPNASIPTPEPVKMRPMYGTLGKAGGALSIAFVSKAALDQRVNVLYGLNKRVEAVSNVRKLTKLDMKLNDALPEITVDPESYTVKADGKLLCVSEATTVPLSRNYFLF
Description: Based on the indophenol method, the velocity of ammonia production (V) was measured in the presence of concentration gradients of urea ([S]) for every specific concentration of selected compounds ([I]). Nonlinear fitting curves to data of V and [S] were used to determine the type of enzyme inhibition based on the general kinetics equation (Equation (1)). Subsequently, the resulted fitting constants ( Km/Vmax(1+[I]/Ki) or 1/Vmax(1+[I]/Ki′) ) and [I] were linearly fitted to give kinetic parameters Ki and Ki', respectively. The experimental assay was performed against a pure urease (Jack bean urease) for the consideration of precision. (1) V=Vmax[S]/Km(1+[I]/Ki)+(1+[I]/K^′i)[S]
Mazzei et al. confirmed that urease shared the mechanism of catalysis and inhibition regardless of the biological sources[27]^,[28]. For excluding the possible interference, a pure urease (Jack bean urease) was therefore used for kinetic assays. As an example, Figure 2 describes the preincubation-time dependence of urease inhibition by b19. The suppressed urease activity maintained at relatively constant values with the increasing preincubation time under different concentrations of b19, resulting in nearly equal IC50 values.
Similarly, kinetic parameters ( Ki and Ki' ) and inhibition types of other compounds were also determined and are shown in Table 3.

[4] = Cytotoxicity MTT assay, L-02; format: cell-based; details: human, L-02 cells (normal hepatic cell line), 25 μg/mL
Description: as §1

Jack bean urease [5] = molecular target: T3, Jack bean urease; assay: Ligand affinity by surface plasmon resonance (SPR); format: binding; details: for kon: pH 7.4; for koff: pH 7.4, SPR, immobilised urease, PBS pH 7.4
Description: The binding kinetics of selected compounds were assayed via surface plasmon resonance (SPR) using an OPEN SPR instrument (Nicoya Lifesciences, Kitchener, Canada). First, urease dissolved (50 µg/mL) in PBS buffer (1 mM KH2PO4, 155 mM NaCl, 3 mM Na2HPO4-12H2O, pH 7.4), was immobilised to a CM5 chip using a standard amine coupling procedure. Then, SPR measurements were carried out in PBS, and stock solutions were diluted in the same buffer. Data were collected with OpenSPR control software. Experiments were performed by monitoring the refractive index changes as a function of time under constant flow rate of 20 µL/min. The relative amount of inhibitor bound to the urease was determined by measuring the net increase in refractive index over time compared to control running buffer. There is an inline subtraction of reference surface during the run. This change is usually reported in response units (RU). Sensograms were processed and analysed using TraceDrawer software. The binding curves were fit to determine the equilibrium dissociation constant (KD).
In the present paper, the pure Jack bean urease from commercial was used for this assay because of non-availability of pure H. pylori urease. […] For efficient and tight ligand binding, the rate constant koff is of particular interest, because koff has a potential to differentiate indistinguishable compounds with similar affinities.

[6] = Helicobacter pylori, pH=4.0, read-out: MIC pH=4.0
[7] = Helicobacter pylori, pH=7.0, read-out: MIC pH=7.0

CC(=O)NO [AHA, acetohydroxamic acid, reference compound]
IC50 ([1]; intact H. pylori cell suspension, read-out: IC50 Urease in intact cell): 171 ± 9 µM
IC50 (H. pylori urease; read-out: IC50 Extracted urease): 27.2 ± 0.7 µM
MIC (H. pylori; pH=4.0, read-out: MIC pH=4.0): 16.0 µM (≈ 1.2 µg/mL)
MIC (H. pylori; pH=7.0, read-out: MIC pH=7.0): >64.0 µM

NC(=S)NC(=O)Cc1cccc(Br)c1 [b2]
melting point: 207.4 to 208.8 °C
IC50 (H. pylori urease; IC50 Extracted urease): 58.4 ± 4.3 µM

NC(=S)NC(=O)Cc1ccc(Cl)c(Cl)c1 [b3]
melting point: 202.1 to 203.4 °C
IC50 (H. pylori urease; IC50 Extracted urease): 63 ± 4.6 µM

NC(=S)NC(=O)Cc1cccc(O)c1 [b4]
viability at 72 h, 25 µg/mL [2]: 88.1%
Ki (Jack bean urease [3]): 4.34 µM
Type of inhibition (Jack bean urease [3]): Reversible
Ki' (Jack bean urease [3]): 8.52 µM
melting point: 160.3 to 161.5 °C
viability at 72 h, 25 µg/mL [4]: 93.7%
IC50 [1]: 108 ± 6.1 µM
IC50 (H. pylori urease; IC50 Extracted urease): 16.3 ± 0.3 µM
MIC (H. pylori; [6]): 64 µM (≈ 13.5 µg/mL)
MIC (H. pylori; [7]): > 64 µM
Kd (Jack bean urease [5]): 0.644 ± 0.0092 µM
kon (Jack bean urease [5]): 60800 M⁻¹ s⁻¹
koff (Jack bean urease [5]): 0.0389 s⁻¹

COc1cccc(CC(=O)NC(N)=S)c1 [b5]
melting point: 184.5 to 186.1 °C
IC50 (H. pylori urease; IC50 Extracted urease): 75.8 ± 5.7 µM

NC(=S)NC(=O)Cc1ccccc1F [b6]
melting point: 157.2 to 159 °C
IC50 (H. pylori urease; IC50 Extracted urease): 41.9 ± 2.5 µM

NC(=S)NC(=O)Cc1cccc(Cl)c1 [b7]
melting point: 136.6 to 137.4 °C
IC50 (H. pylori urease; IC50 Extracted urease): 63.6 ± 5.1 µM
fold decrease in potency relative to b19, extracted urease (H. pylori urease; ratio of IC50 values vs b19): 397 fold

NC(=S)NC(=O)Cc1ccc(O)cc1 [b8]
viability at 72 h, 25 µg/mL [2]: 94.6%
Ki (Jack bean urease [3]): 2.54 µM
Type of inhibition (Jack bean urease [3]): Reversible
Ki' (Jack bean urease [3]): 11.3 µM
melting point: 177.1 to 178.3 °C
viability at 72 h, 25 µg/mL [4]: 92.1%
IC50 [1]: 52.5 ± 3.9 µM
IC50 (H. pylori urease; IC50 Extracted urease): 9.93 ± 0.9 µM
MIC (H. pylori; [6]): 8 µM (≈ 1.68 µg/mL)
MIC (H. pylori; [7]): 64 µM (≈ 13.5 µg/mL)
Kd (Jack bean urease [5]): 0.311 ± 0.0103 µM
kon (Jack bean urease [5]): 9.38e+06 M⁻¹ s⁻¹
koff (Jack bean urease [5]): 0.00292 s⁻¹

NC(=S)NC(=O)Cc1cccc(C(F)(F)F)c1 [b9]
melting point: 204.3 to 205.8 °C
IC50 (H. pylori urease; IC50 Extracted urease): 136 ± 7 µM

COc1ccc(CC(=O)NC(N)=S)cc1OC [b10]
viability at 72 h, 25 µg/mL [2]: 95.3%
melting point: 146.3 to 147.6 °C
viability at 72 h, 25 µg/mL [4]: 108%
IC50 [1]: 207 ± 16 µM
IC50 (H. pylori urease; IC50 Extracted urease): 24.2 ± 0.6 µM

COc1ccc(CC(=O)NC(N)=S)cc1 [b11]
viability at 72 h, 25 µg/mL [2]: 87.5%
Ki (Jack bean urease [3]): 3.94 µM
Type of inhibition (Jack bean urease [3]): Reversible
Ki' (Jack bean urease [3]): 12.7 µM
melting point: 143.5 to 144.7 °C
viability at 72 h, 25 µg/mL [4]: 97%
IC50 [1]: 98.3 ± 5.9 µM
IC50 (H. pylori urease; IC50 Extracted urease): 16.3 ± 1.2 µM
MIC (H. pylori; [6]): 32 µM (≈ 7.18 µg/mL)
MIC (H. pylori; [7]): > 64 µM
Kd (Jack bean urease [5]): 0.667 ± 0.0137 µM
kon (Jack bean urease [5]): 572000 M⁻¹ s⁻¹
koff (Jack bean urease [5]): 0.0381 s⁻¹

NC(=S)NC(=O)Cc1ccc(Br)cc1 [b12]
viability at 72 h, 25 µg/mL [2]: 89.4%
melting point: 174.9 to 176.2 °C
viability at 72 h, 25 µg/mL [4]: 91.5%
IC50 [1]: 189 ± 18 µM
IC50 (H. pylori urease; IC50 Extracted urease): 22.9 ± 0.4 µM

NC(=S)NC(=O)Cc1ccccc1Cl [b13]
melting point: 148.8 to 151.2 °C
IC50 (H. pylori urease; IC50 Extracted urease): 54.2 ± 4.8 µM

NC(=S)NC(=O)Cc1cccc(F)c1 [b14]
melting point: 126 to 127.4 °C
IC50 (H. pylori urease; IC50 Extracted urease): 50.3 ± 3.5 µM

NC(=S)NC(=O)Cc1ccccc1Br [b15]
melting point: 179 to 179.5 °C
IC50 (H. pylori urease; IC50 Extracted urease): 51.1 ± 4.4 µM

COc1ccccc1CC(=O)NC(N)=S [b17]
melting point: 135.4 to 136.9 °C
IC50 (H. pylori urease; IC50 Extracted urease): 55.7 ± 3.1 µM

Cc1ccccc1CC(=O)NC(N)=S [b18]
melting point: 135.6 to 137.1 °C
IC50 (H. pylori urease; IC50 Extracted urease): 46.2 ± 1.8 µM

NC(=S)NC(=O)Cc1ccccc1[N+](=O)[O-] [b20]
melting point: 177.6 to 178.4 °C
IC50 (H. pylori urease; IC50 Extracted urease): 183 ± 12 µM

NC(=S)NC(=O)Cc1ccc(Cl)cc1Cl [b21]
melting point: 166.6 to 167.2 °C
IC50 (H. pylori urease; IC50 Extracted urease): 67.7 ± 4.3 µM

NC(=S)NC(=O)Cc1ccc([N+](=O)[O-])cc1 [b22]
melting point: 199.1 to 200.9 °C
IC50 (H. pylori urease; IC50 Extracted urease): 155 ± 16 µM

NC(=S)NC(=O)Cc1ccc2ccccc2c1 [b24]
melting point: 202.6 to 204.4 °C

NC(=S)NC(=O)C(c1ccccc1)c1ccccc1 [b25]
melting point: 169.5 to 172.7 °C
IC50 (H. pylori urease; IC50 Extracted urease): 318 ± 24 µM

NC(=S)NC(=O)Cc1ccc(-c2ccccc2)cc1 [b26]
melting point: 187.3 to 189.6 °C
IC50 (H. pylori urease; IC50 Extracted urease): 279 ± 16 µM

NC(=S)NC(=O)Cc1cccc2ccccc12 [b27]
melting point: 195.5 to 197.9 °C

NC(=S)NC(=O)Cc1ccc2c(c1)OCO2 [b28]
melting point: 153.5 to 155 °C
IC50 (H. pylori urease; IC50 Extracted urease): 98 ± 5 µM

NC(=S)NC(=O)Cc1ccc(O)c(O)c1 [b29]
Ki (Jack bean urease [3]): 8.21 µM
Type of inhibition (Jack bean urease [3]): Reversible
Ki' (Jack bean urease [3]): 21.5 µM
melting point: 153.5 to 155 °C
IC50 [1]: 143 ± 6 µM
IC50 (H. pylori urease; IC50 Extracted urease): 18.4 ± 1.6 µM
Kd (Jack bean urease [5]): 0.783 ± 0.0213 µM
kon (Jack bean urease [5]): 19800 M⁻¹ s⁻¹
koff (Jack bean urease [5]): 0.0155 s⁻¹
